Measured values: ChEMBL document CHEMBL1201862, “PubChem BioAssay data set” (2004)
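Test compounds were applied to cells in 96-well plates for 48 hours at 5 doses. At the GI50, growth is halved.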 Active and inactive are the calls of the source. No stated cut-off is given here; in the data, active = GI50 up to about 1.1 µM and inactive = higher.

Experiments:
Assay in all cases: inhibition of tumour cell growth, NCI panel, 48 h
HOP-18 = system: HOP-18
OVCAR-4 = system: OVCAR-4
NCI-H522 = system: NCI-H522
U-251 = system: U-251
DMS-114 = system: DMS-114
M19-MEL = system: M19-MEL
COLO 205 = system: COLO 205
SW-620 = system: SW-620
SK-OV-3 = system: SK-OV-3
OVCAR-5 = system: OVCAR-5
OVCAR-8 = system: OVCAR-8
EKVX = system: EKVX
A498 = system: A498
RPMI-8226 = system: RPMI-8226
KM-20L2 = system: KM-20L2
HT-29 = system: HT-29
IGROV-1 = system: IGROV-1
NCI-H23 = system: NCI-H23
KM12 = system: KM12
SK-MEL-2 = system: SK-MEL-2
NCI-H226 = system: NCI-H226
786-0 = system: 786-0
SNB-19 = system: SNB-19
SF-539 = system: SF-539
SF-268 = system: SF-268
HCC 2998 = system: HCC 2998
NCI-H460 = system: NCI-H460
CAKI-1 = system: CAKI-1
SK-MEL-5 = system: SK-MEL-5
HCT-15 = system: HCT-15
M14 = system: M14
DLD-1 = system: DLD-1
SF-295 = system: SF-295
TK-10 = system: TK-10
Malme-3M = system: Malme-3M
A549 = system: A549
HL-60 = system: HL-60
K562 = system: K562
SK-MEL-28 = system: SK-MEL-28
SN12C = system: SN12C
OVCAR-3 = system: OVCAR-3
DMS-273 = system: DMS-273
SNB-75 = system: SNB-75
LOX IMVI = system: LOX IMVI
MOLT-4 = system: MOLT-4
CCRF-CEM = system: CCRF-CEM
HOP-62 = system: HOP-62
HCT-116 = system: HCT-116
HOP-92 = system: HOP-92
UACC-62 = system: UACC-62
LXFL 529 = system: LXFL 529
RXF 393 = system: RXF 393
SNB-78 = system: SNB-78
ACHN = system: ACHN
SR = system: SR
XF498 = system: XF498
UO-31 = system: UO-31
UACC-257 = system: UACC-257

Measured: GI50

CCCC(=O)c1ccc2c(ccc(=O)n2C)c1
> 100 µM: HCT-15
inactive: HOP-18 88.1 µM | OVCAR-4 66.7 µM | NCI-H522 31.9 µM | U-251 > 100 µM | DMS-114 31.6 µM | M19-MEL > 100 µM | COLO 205 > 100 µM | SW-620 > 100 µM | SK-OV-3 > 100 µM | OVCAR-5 > 100 µM | OVCAR-8 > 100 µM | EKVX 42.2 µM | A498 83 µM | RPMI-8226 > 100 µM | KM-20L2 > 100 µM | HT-29 > 100 µM | IGROV-1 > 100 µM | NCI-H23 > 100 µM | KM12 > 100 µM | SK-MEL-2 > 100 µM | NCI-H226 31 µM | 786-0 > 100 µM | SNB-19 > 100 µM | SF-539 > 100 µM | SF-268 > 100 µM | HCC 2998 > 100 µM | NCI-H460 > 100 µM | CAKI-1 52.7 µM | SK-MEL-5 72.9 µM | M14 > 100 µM | DLD-1 > 100 µM | SF-295 > 100 µM | TK-10 > 100 µM | Malme-3M > 100 µM | A549 > 100 µM | HL-60 > 100 µM | K562 > 100 µM | SK-MEL-28 > 100 µM | SN12C > 100 µM | OVCAR-3 > 100 µM | DMS-273 66.2 µM | SNB-75 27.2 µM | LOX IMVI > 100 µM | MOLT-4 > 100 µM | CCRF-CEM > 100 µM | HOP-62 > 100 µM | HCT-116 > 100 µM | HOP-92 46.2 µM | UACC-62 24.3 µM | LXFL 529 84.5 µM

COc1ccc2c([nH]c3cc(O)c(C)cc32)c1C=O
inactive: OVCAR-4 > 25 µM | NCI-H522 20 µM | U-251 > 25 µM | DMS-114 > 25 µM | RXF 393 > 25 µM | M19-MEL > 25 µM | COLO 205 > 25 µM | SW-620 > 25 µM | SK-OV-3 > 25 µM | OVCAR-5 > 25 µM | OVCAR-8 > 25 µM | RPMI-8226 > 25 µM | SNB-78 > 25 µM | KM-20L2 > 25 µM | HT-29 > 25 µM | IGROV-1 > 25 µM | KM12 > 25 µM | ACHN > 25 µM | SK-MEL-2 > 25 µM | NCI-H226 > 25 µM | 786-0 > 25 µM | SNB-19 > 25 µM | SF-539 > 25 µM | SF-268 > 25 µM | HCC 2998 > 25 µM | NCI-H460 11.2 µM | SR 18.9 µM | XF498 > 25 µM | UO-31 > 25 µM | SK-MEL-5 > 25 µM | M14 > 25 µM | DLD-1 > 25 µM | TK-10 > 25 µM | Malme-3M > 25 µM | A549 18.5 µM | HL-60 15.9 µM | K562 14.6 µM | SK-MEL-28 > 25 µM | SN12C > 25 µM | OVCAR-3 > 25 µM | DMS-273 > 25 µM | LOX IMVI > 25 µM | MOLT-4 11.2 µM | CCRF-CEM 23.6 µM | HOP-62 > 25 µM | HCT-116 > 25 µM | HOP-92 > 25 µM | UACC-62 > 25 µM | LXFL 529 > 25 µM
14.8 µM: HCT-15

Cc1ccc(C(=O)N2CCCCC2)cc1/N=N/N(C)C
> 100 µM: HCT-15
inactive: OVCAR-4 > 100 µM | NCI-H522 > 100 µM | DMS-114 > 100 µM | M19-MEL > 100 µM | COLO 205 > 100 µM | SW-620 > 100 µM | SK-OV-3 > 10 µM | OVCAR-5 > 100 µM | OVCAR-8 > 100 µM | EKVX > 100 µM | A498 > 100 µM | RPMI-8226 > 100 µM | HT-29 > 100 µM | IGROV-1 > 100 µM | NCI-H23 > 100 µM | KM12 > 100 µM | ACHN > 100 µM | SK-MEL-2 > 100 µM | NCI-H226 > 100 µM | 786-0 > 100 µM | SNB-19 > 100 µM | SF-539 > 100 µM | SF-268 > 100 µM | HCC 2998 > 100 µM | NCI-H460 > 100 µM | SR > 100 µM | UO-31 > 100 µM | CAKI-1 > 100 µM | SK-MEL-5 > 100 µM | M14 > 100 µM | DLD-1 > 100 µM | SF-295 > 100 µM | TK-10 > 100 µM | Malme-3M > 100 µM | A549 > 100 µM | HL-60 > 100 µM | UACC-257 > 100 µM | K562 > 100 µM | SK-MEL-28 > 100 µM | SN12C > 100 µM | OVCAR-3 > 100 µM | DMS-273 > 100 µM | SNB-75 > 100 µM | LOX IMVI > 100 µM | MOLT-4 > 100 µM | CCRF-CEM > 100 µM | HOP-62 > 100 µM | HCT-116 > 100 µM | UACC-62 > 100 µM | LXFL 529 > 100 µM
